Among the test systems are KM12 colon; MDA-MB-231 breast; HCC-2998 colon.
What all share (test): growth of human tumour cells (NCI), 48 h

Molecules are shown by their SMILES.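 Grown in 96-well plates, cells were treated for 48 hours with each compound at five concentrations. Insufficient inhibition: endpoint recorded as highest concentration tested. At the GI50, growth is halved. TGI marks complete inhibition of growth.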

Regarding `CSc1cc(Cl)c(C)cc1S(=O)(=O)NC(=O)NNc1ccc(F)cc1`, the TGI with KM12 colon, in the assay on MDA-MB-231 breast and in the assay with HCC-2998 colon was above 100 µM in each case.
As for `CC(C)=CC1C(C(=O)Oc2ccccc2C(C)C)C1(C)C` (configuration not stated), the TGI stood at 38.9 µM with KM12 colon, 52 µM in the assay on MDA-MB-231 breast and 33.4 µM in the assay with HCC-2998 colon.
In the same order, the values of `CCOC(=O)/C=C(/C(=O)OCC)n1cc(C)c(=O)n(Cc2cnnn2COCCOC(C)=O)c1=O` are 56.2 µM, 36.1 µM and 39.1 µM.
In the same order, the values of `O=P(O)(O)c1ccc(-c2ccc(I)cc2)cc1` are above 100 µM, above 100 µM and above 100 µM.
In the case of `Nc1nc(Cl)cc(OCC2(CO)CCCC2)n1`, the TGI in the assay on HCC-2998 colon was above 100 µM.
On to `Clc1cc(-c2ccccc2)nc(Nc2nc3ccccc3[nH]2)n1`, for which the TGI is above 100 µM with KM12 colon and 33.9 µM in the assay with MDA-MB-231 breast.
Take `CC(=O)O[C@H]1C(=O)[C@@]2(C)[C@H]([C@H](OC(=O)c3ccccc3)[C@]3(O)C[C@H](OC(=O)[C@H](O)[C@@H](NC(=O)c4ccccc4)c4ccc5ccccc5c4)C(C)=C1C3(C)C)[C@]1(OC(C)=O)CO[C@@H]1C[C@@H]2O`: the TGI came to 1.8 µM in the assay with MDA-MB-231 breast and 0.228 µM with HCC-2998 colon.
For `O=C1c2cc(I)ccc2N2CCN=C2N1Cc1ccccc1`, the TGI with KM12 colon and in the assay on MDA-MB-231 breast was above 100 µM throughout.
For `CC(=O)OCC1OC(n2cnc3nc(Br)[nH]c(=O)c32)C(OC(C)=O)C1OC(C)=O` (configuration not stated), the TGI in the assay with KM12 colon, with MDA-MB-231 breast and with HCC-2998 colon was above 100 µM in each case.
Consider `COc1ccc2c(c1)CC[C@@H]1C2CC[C@]2(C)C(=O)N(CCN(C)C)C(=O)CC12` (some centres not stated), for which the TGI in the assay with KM12 colon, in the assay on MDA-MB-231 breast and in the assay on HCC-2998 colon was above 100 µM in each case.
Turning to `c1coc(-c2nccc3c2[nH]c2ccccc23)c1`, the TGI in the assay on KM12 colon, with MDA-MB-231 breast and in the assay on HCC-2998 colon was above 100 µM in each case.
As for `CN(C)Cc1c(O)ccc2c1c1c(n2C)C(=O)c2ccccc2C1=O`, the TGI with KM12 colon was 23.9 µM; in the assay on MDA-MB-231 breast, above 100 µM; with HCC-2998 colon, 13.9 µM.
Consider `COc1cccc2c1NC(=O)Cc1c-2[nH]c2ccccc12`, for which the TGI in the assay on KM12 colon, in the assay with MDA-MB-231 breast and with HCC-2998 colon was above 100 µM throughout.
`Cc1ncc([N+](=O)[O-])n1CC[N+](C)([O-])CCCCn1ccnc1[N+](=O)[O-]` (configuration not stated): the TGI with KM12 colon and in the assay with MDA-MB-231 breast was above 100 µM throughout.
Turning to `N#Cc1c(N)oc(-c2ccc([N+](=O)[O-])cc2)c1C#N`, the figures for the TGI in the assay on KM12 colon, in the assay on MDA-MB-231 breast and in the assay with HCC-2998 colon were above 100 µM, 64.3 µM and above 100 µM, respectively.
For the molecule `COC(=O)CNC(=O)C(Cc1ccccc1)NC(=O)c1ccc(-c2ccc(Cl)cc2Cl)o1` (configuration not stated), the TGI in the assay on KM12 colon turned out to be 91.2 µM; in the assay on MDA-MB-231 breast, 52.4 µM.
With `COC(=O)Nc1nc2ccc(S(=O)(=O)Nc3ccccn3)cc2[nH]1`, the TGI in the assay on KM12 colon and in the assay with MDA-MB-231 breast was above 100 µM in each case.
On to `CCOC(=O)/C=C/C(=O)O/C=C/[N+](=O)[O-]`, for which the TGI with KM12 colon, in the assay with MDA-MB-231 breast and in the assay on HCC-2998 colon was above 100 µM each time.
Turning to `COc1cc(C2S/C(=C/c3ccccc3)C(=O)N2Cc2ccccc2)cc(OC)c1OC` (configuration not stated), the TGI with KM12 colon was above 100 µM; in the assay on MDA-MB-231 breast, above 100 µM; with HCC-2998 colon, 69.4 µM.
On to `CC(C)(C)COC(=O)C(C)(C)NC(=O)C(CC(=O)OCc1ccccc1)NC(=O)OCc1ccccc1` (configuration not stated), for which the TGI with KM12 colon, in the assay on MDA-MB-231 breast and in the assay with HCC-2998 colon was above 100 µM throughout.
Regarding `CC(C)(C)NC1=NC(C(F)(F)F)(C(F)(F)F)NC(=O)N1`, the TGI was above 100 µM in the assay on KM12 colon, above 100 µM in the assay with MDA-MB-231 breast and 79 µM in the assay with HCC-2998 colon.
For the molecule `Cc1cc2cc3cc(C)c(N)cc3nc2cc1N`, the TGI in the assay with KM12 colon turned out to be 2.03 µM; with MDA-MB-231 breast, 1.27 µM.
In the case of `COC1=C[C@]2(CCC(=O)O2)[C@@H]2Cc3ccccc3[C@H](O)[C@@H]2C1=O`, the TGI with KM12 colon, in the assay with MDA-MB-231 breast and with HCC-2998 colon was above 100 µM throughout.
As for `C=C(C)[C@@H](O)[C@H](O)C[C@H](C)C1CC[C@]2(C)C1=CC[C@@H]1[C@@]3(C)CC[C@@H](OC(C)=O)C(C)(C)[C@@H]3C[C@@H](OC3OC(COC(C)=O)C(O)C(O)C3O)[C@]12C` (some centres not stated), the TGI in the assay with KM12 colon came to 2.95 µM; in the assay with MDA-MB-231 breast it was 6.64 µM; with HCC-2998 colon, 1.69 µM.
With `Oc1c(CN2CCCC2)ccc2cccnc12`, the TGI in the assay on KM12 colon, in the assay with MDA-MB-231 breast and in the assay with HCC-2998 colon was above 100 µM throughout.
Take `Cc1ccc(S(=O)(=O)N2CCC[C@@H]2C(=O)O[C@@H]2CCC3CC=CC32)cc1` (some centres not stated): the TGI with KM12 colon, in the assay with MDA-MB-231 breast and with HCC-2998 colon was above 100 µM throughout.
As for `CSc1ncc2c(n1)-c1ccccc1OC2N1CCOCC1` (configuration not stated), the TGI in the assay on KM12 colon and in the assay with MDA-MB-231 breast was above 100 µM in each case.
With `O=C(CN1CCCC1=O)CS(=O)(=O)c1ccccc1`, the TGI in the assay with KM12 colon and in the assay with HCC-2998 colon was above 100 µM in each case.
Take `CCC(C)(C)c1cc(O)c(C(C)(C)CC)cc1O`: the GI50 is 3.52 µM with KM12 colon, 2.35 µM in the assay on MDA-MB-231 breast and 2.3 µM with HCC-2998 colon. Moreover, the TGI came out at 12.6 µM in the assay with KM12 colon, 8.04 µM in the assay with MDA-MB-231 breast and 5.36 µM in the assay with HCC-2998 colon.
Regarding `Cc1ccccc1NC(=O)Cc1csc(N/N=C2\NC(=O)/C(=C/c3cccc([N+](=O)[O-])c3)S2)n1`, the TGI with KM12 colon was found to be 34.2 µM; with MDA-MB-231 breast it was 57.3 µM; with HCC-2998 colon it was 27.3 µM.

These data come from PubChem BioAssay (NCI).
